From patent US20070082883A1, “HIV protease inhibitors” (THE BOARD OF TRUSTEES OF THE UNIVERSITY OF ILLINOIS, priority 2002, published 2007)

target: T1, HIV-1 protease (Human immunodeficiency virus type 1 group M subtype B, UniProt P04585); test: HIV-1 Protease Inhibition Assay; assay type: biochemical; settings: cells marked (pM) in a column headed nM
T1 construct: made in house; host or cells: E. coli BL21 (dE3)pLysS, pET30a vector
Text: Assays of the dose-response effect of inhibitor compounds can be described as a curve expressing a degree of inhibition as a function of concentration. The curve theoretically passes through a point at which the concentration is sufficient to reduce activity of the HIV protease enzyme to a level that is 50% that of the difference between minimal and maximal enzyme activity in the assay.
HIV-1 Protease Inhibition Assay
The HIV-1 protease gene was subcloned into the pET30a vector (Novagen) and then transformed into BL21 (dE3)pLysS cells for protein expression. Protein expression and purification were followed according to Tang's procedure (Hong et al., Biochemistry, 1996, 35, 10627-10633). […] The inclusion body containing some bacterial proteins was thoroughly washed by using TRITON X-100, solubilized in […] and passed through the Q-sepharose column to remove the bacterial proteins which interfered with subsequent refolding steps. HIV-1 protease was refolded from the urea to an active form by dialysis. As a final step, gel filtration chromatography was used to remove impurities after refolding. Activities of purified HIV-1 protease were examined using a fluorogenic substrate, 2-aminobenzoyl-Thr-Ile-Nle-Phe(pNO2)-Gln-Arg-NH2 (Novabiochem). […] In the condition of So<<Km, v=Eo(kcat/Km)So, where Eo is the total enzyme concentration, and So is the substrate concentrate. […] Assays are carried out as described by Toth and Marshall (Toth et al., Int. J. Pept. Protein Res., 1990, 36, 544-50).

SMILES	IC50 [pM]
COc1ccc(S(=O)(=O)N(C[C@H]2CCC(=O)N2)C[C@@H](O)[C@H](Cc2ccccc2)NC(=O)OC2CO[C@H]3OCC[C@@H]23)cc1 (some centres unmarked) [Compound 273]	17

same assay, conditions: fluorogenic substrate assay

SMILES	IC50 [pM]	Ki [nM]
COc1ccc(S(=O)(=O)NN(CC(C)C)C[C@@H](O)[C@H](Cc2ccccc2)NC(=O)O[C@H]2CO[C@H]3OCCC32)cc1 (some centres unmarked) [Compound 185]	312000	97
CC(C)CN(C[C@@H](O)[C@H](Cc1ccccc1)NC(=O)O[C@@H]1CC2CCO[C@@H]2C1)S(=O)(=O)c1ccc(O)c(O)c1 (some centres unmarked) [Compound 258]	3900	
O=C(N[C@@H](Cc1ccccc1)[C@H](O)CN1CCCCCCCCOc2cccc(c2)S1(=O)=O)O[C@H]1CO[C@H]2OCCC21 (some centres unmarked) [Compound 234]	7300	2.3
CC(C)(C)OC(=O)NN(C[C@@H](O)[C@H](Cc1ccccc1)NC(=O)O[C@H]1CO[C@H]2OCCC21)S(=O)(=O)c1ccc(F)c(N)c1 (some centres unmarked) [Compound 190]	3500	1.1
CC(C)CN(C[C@@H](O)[C@H](Cc1ccccc1)NC(=O)O[C@@H]1CC2CCO[C@@H]2C1)NS(=O)(=O)c1ccc(F)c([N+](=O)[O-])c1 (some centres unmarked) [Compound 184]	1.2e+06	351
CC(C)CN(C[C@@H](O)[C@H](Cc1ccccc1)NC(=O)OC1CO[C@H]2OCCC12)S(=O)(=O)c1ccc(CN)cc1 (some centres unmarked) [Compound 118]	2700	0.9
C=CCCCCN(C[C@@H](O)[C@H](Cc1ccccc1)NC(=O)O[C@@H]1CC2CCO[C@@H]2C1)S(=O)(=O)c1cccc(C(O)CC=C)c1 (some centres unmarked) [Compound 237]	10000	3.1
Cc1c(O)cccc1C(=O)N[C@@H](Cc1ccccc1)[C@H](O)CN(CC(C)C)S(=O)(=O)c1ccc(F)c(N)c1 [Compound 183]	179000	56
COc1ccc(S(=O)(=O)N(C[C@@H](O)[C@H](Cc2ccccc2)NC(=O)OC(C)(C)C)NC(=O)OC(C)(C)C)cc1 [Compound 187]	534000	166
CC(C)CN(C[C@@H](O)[C@H](Cc1ccccc1)NC(=O)O[C@H]1CO[C@H]2OCC[C@H]21)[C@H]1CCNC1=O [Compound 249]		37
Cc1ccc(S(=O)(=O)N(CC(C)C)C[C@@H](O)[C@H](Cc2ccccc2)NC(=O)OC2CC3CCO[C@@H]3C2)cc1CO (some centres unmarked) [Compound 157]	2800	0.87
O=C(N[C@@H](Cc1ccccc1)[C@H](O)CN1CCCCCCCCCOc2ccccc2COC1=O)O[C@@H]1CC2CCO[C@@H]2C1 (some centres unmarked) [Compound 228]	2.2e+06	638
CC(C)CN(C[C@@H](O)[C@H](Cc1ccccc1)NC(=O)O[C@@H]1CCOC1)[C@H]1CCNC1=O [Compound 248]		730
COc1ccc(S(=O)(=O)N(C[C@@H](O)[C@H](Cc2ccccc2)NC(=O)O[C@H]2CO[C@H]3OCCC32)NC(=O)OC(C)(C)C)cc1 (some centres unmarked) [Compound 188]	3900	1.2
COc1ccc(S(=O)(=O)N(C[C@@H](O)[C@H](Cc2ccccc2)NC(=O)O[C@H]2C[C@H]3CCO[C@H]3C2)C2CN(C)C2)cc1 [Compound 205]	87000	27
CC(C)CN(C[C@@H](O)[C@H](Cc1ccccc1)NC(=O)OC1CC2CCO[C@@H]2C1)S(=O)(=O)c1cccc(C=NO)c1 (some centres unmarked) [Compound 129]	2900	0.9
O=C(N[C@@H](Cc1ccccc1)[C@H](O)CN1CCCCCCCOc2cccc(c2)S1(=O)=O)O[C@H]1CO[C@H]2OCCC21 (some centres unmarked) [Compound 231]	8600	2.7
Cc1ccc(S(=O)(=O)N(CCN(C)C)C[C@@H](O)[C@H](Cc2ccccc2)NC(=O)O[C@@H]2CO[C@@H]3OCCC[C@@H]32)cc1CO [Compound 160]	231000	72
C=CCCCCN(C[C@@H](O)[C@H](Cc1ccccc1)NC(=O)O[C@H]1CO[C@H]2OCCC21)S(=O)(=O)c1cccc(OCCCC=C)c1 (some centres unmarked) [Compound 225]	8100	2.5
CC(C)CN(C[C@@H](O)[C@H](Cc1ccccc1)NC(=O)OC1CC2CCO[C@@H]2C1)S(=O)(=O)Cc1ccccc1 (some centres unmarked) [Compound 133]	48000	15
